In PMC5786306, “An AKAP-Lbc-RhoA interaction inhibitor promotes the translocation of aquaporin-2 to the plasma membrane of renal collecting duct principal cells” (PLoS ONE, 2018):

Key:
[1] = biological target: T1, interaction of the DH domain of AKAP-Lbc and RhoA (Homo sapiens, UniProt P61586); assay: Alpha screen assay; type: binding
T1 construct: The proteins used were N-terminally His6-tagged AKAP-Lbc-DH domain
Experimental: Assays were performed according to the manufacturer’s protocol (PerkinElmer) with minor modifications. All reagents were diluted in buffer containing 25 mM Hepes, pH 7.4, 100 mM NaCl, 0.1% bovine serum albumin, 0.05% CHAPS and 50 μM GDP and allowed to equilibrate to room temperature before addition to plates. […] The proteins used were N-terminally His6-tagged AKAP-Lbc-DH domain and C-terminally biotinylated RhoA. […] 8 μL of assay buffer containing donor and acceptor beads at 1:400 dilution was then added, the plate was incubated in the dark for 60 min and then read on a PheraStar FS plate reader (BMG Labtech, Germany) using an AlphaScreen^TM 680 excitation/570 emission filter set.
11.6 μL of a solution containing 100 nM RhoA and 200 nM AKAP13 in assay buffer was added and incubated with the compounds for 30 min at RT in foil-sealed plates. 8 μL of assay buffer containing donor and acceptor beads at 1:400 dilution was added. The plate was incubated in the dark for 60 min and then read on a PheraStar FS plate reader.

GFP-AKAP-Lbc/DHPH = biological target: T2, GFP-AKAP-Lbc/DHPH (Homo sapiens, UniProt Q12802); assay: Microscale thermophoresis (MST) with GFP-AKAP-Lbc/DHPH; type: binding; conditions: result in words
T2 construct: His6-AKAP-Lbc/DHPH (aa 1972–2342 of human AKAP-Lbc; NP_006729.4); made in house; host or cells: HEK293-EBNA cells (transient transfection, pTT5)
T2 sequence (Q12802 1972-2342 isoform Q12802-2): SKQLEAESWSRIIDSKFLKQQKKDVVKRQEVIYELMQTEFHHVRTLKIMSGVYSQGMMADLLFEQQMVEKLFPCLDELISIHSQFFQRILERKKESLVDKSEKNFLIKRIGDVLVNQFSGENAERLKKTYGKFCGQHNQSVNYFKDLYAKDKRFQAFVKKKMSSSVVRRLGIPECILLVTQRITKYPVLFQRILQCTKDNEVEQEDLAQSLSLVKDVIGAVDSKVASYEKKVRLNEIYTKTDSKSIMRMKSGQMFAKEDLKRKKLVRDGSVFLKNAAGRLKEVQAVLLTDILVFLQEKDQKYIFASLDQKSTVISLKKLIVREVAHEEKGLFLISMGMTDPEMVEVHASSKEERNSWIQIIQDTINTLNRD
Experimental: The final concentration of GFP-AKAP-Lbc/DHPH was set to 150 nM, 95% LED and 80% MST laser power. […] The samples were incubated in the dark for 1 h incubation at room temperature, and measured with 30 sec laser-on and 5 sec laser-off time at a Monolith NT.115 device (NanoTemper). Measured fluorescence (F) was normalised (Fhot/Fcold = Fsteady state/Finitial state, Fig 3). Values of thermophoresis + T-jump were related to average of each measurement row (16 capillaries). Final values are given as ‰.
Fig 4 The Scaff10 derivative Scaff10-8 binds to RhoA but not to the DHPH domain of AKAP-Lbc. (A-D) Microscale thermophoresis (MST) takes advantage of the phenomenon of directed movement of particles in a temperature gradient. Binding events lead to changes in the hydration shell of biomolecules and a relative change of movement of the molecular complex along a temperature gradient. Using such changes, binding affinities can be determined. MST assays were carried out with (A) the recombinant DHPH domain of AKAP-Lbc fused with GFP and RhoA as a ligand and (B) fluorescent 647-RhoA and the His-tagged AKAP-Lbc/DHPH domain as a ligand. (C) MST assays for the analysis of the binding of Scaff10-8 to 647-RhoA. Upper panels: The concentration of fluorescent 647-RhoA remained constant and Scaff10-8 (left) and Scaff10-7 as a negative control (right) were titrated in increasing concentrations. Lower panels: Values of fluorescence corresponding to upper panels. (D) MST assay showing no binding of Scaff10-8 or Scaff10-7 to GFP-DHPH. Upper panels: The concentration of fluorescent GFP-AKAP-Lbc/DHPH remained constant and Scaff10-8 (left) and Scaff10-7 (right) were titrated in increasing concentrations. Lower panels: Values of fluorescence corresponding to upper panels. […] F norm = normalized fluorescence (fluorescence steady state/fluorescence initial state) indicated in ‰. n = 3–5. Mean ± SEM. […] The ligand protein named in each panel heading is used as the substance label, and it is uncertain whether these count as substances.

[2] = test system: IMCD, MCD4, HEK293, MCF7 and H9C2 cells; assay: MTS cytotoxicity assay; type: cell-based, rat, mouse, human; conditions: 3–100 μM, 24–72 h
Experimental: The potential cytotoxicity of Scaff10-8 on primary IMCD and several permanent cell lines (MCF7, H9C2, HEK293, MCD4) was assessed using the tetrazolium compound-based CellTiter 96 AQueous One Solution Cell Proliferation (3-(4,5-dimethylthiazol-2-yl)-5-(3-carboxymethoxyphenyl)-2-(4-sulfophenyl)-2H-tetrazolium) (MTS) assay according to the instructions of the manufacturer. In brief, the cells were seeded into 96 well plates (5,000 cells per well) and cultured in their appropriate medium Scaff10-8 (100 μM, 30 μm and 3 μm, 0.3% final DMSO concentration) were added, DMSO (0.3%) was included as a control. Staurosporine (1 μM) was included as a positive control. All conditions were tested in quadruplicate. At the indicated time points, the MTS reagent was added. Absorption was determined 4 h after addition of MTS reagent at 450 nm wavelength. The MST reagent absorbance at 450 nm is proportional to the amount of living cells. A blank measurement determined the medium absorption (background). Values were normalized to untreated cells after 24 h for each cell line.
Fig 6 Scaff10-8 is not cytotoxic. […] (B) Cytotoxicity was assessed after 24–72 h of incubation with Scaff10-8 (3, 30, 100 μM). […] Absorption was determined at 450 nm and was related to medium absorption (blank). […] Statistically significant differences were determined applying one-way ANOVA with posthoc Bonferroni. […]

T1 sequence (P61586 whole entry, the tested form may be a part): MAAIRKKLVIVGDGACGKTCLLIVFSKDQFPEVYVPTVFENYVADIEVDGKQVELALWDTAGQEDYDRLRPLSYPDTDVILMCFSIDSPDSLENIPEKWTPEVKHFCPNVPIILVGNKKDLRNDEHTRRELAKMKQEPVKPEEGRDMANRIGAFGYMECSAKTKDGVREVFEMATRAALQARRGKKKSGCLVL

inhibitory effect in Alpha screen ([1]; result in words)	Compound	binding to GFP-AKAP-Lbc/DHPH (GFP-AKAP-Lbc/DHPH)	IC50 [1]	viability of cells (MTS) [2]
without inhibitory effects	CCOC(=O)CCc1c(C)c2ccc(OCC(=O)c3ccc(OC)cc3)cc2oc1=O [Scaff10-7, Ethyl 3-[7-[2-(4-methoxyphenyl)-2-oxo-ethoxy]-4-methyl-2-oxo-chromen-3-yl]propanoate]	no binding		
	COc1ccc(-c2coc3cc4oc(=O)c(CCC(=O)O)c(C)c4cc23)cc1 [Scaff10-8, 3-[3-(4-Methoxyphenyl)-5-methyl-7-oxo-furo[3,2-g]chromen-6-yl] propanoic acid]	no binding	42 µM	did not influence the viability
